# Test results as given in patent US20160046904A1, “Method For Culturing Hepatoblast-Like Cells And Culture Product Thereof” (NATIONAL INSTITUTES OF BIOMEDICAL INNOVATION, HEALTH AND …, priority 2013, published 2016).
# Key:
# [1] = tested on: HBCs derived from ES cells; test: Proliferation of HBCs on various laminin-coated culture dishes; format: cell-based, human; conditions: attached HBCs cultured for 7 days; compared among LN111, LN211, LN411, LN511 coated dishes (FIG. 8)
# Procedure: (§1) In Example 1 and Comparative Example 1, with regard to HBCs derived from ES cells obtained in Reference Example 2, properties of cells treated with laminins were confirmed. The coating treatment was performed on cell culture dishes by using various types of human laminins with different isoforms (laminin 111 (LN111), laminin 211 (LN211), laminin 411 ([…]), and laminin 511 (LN511)). The coating treatment was conducted by preparing 20 μg/ml of each Laminin Coating Solution, adding the Laminin Coating Solution to each well at 5 μg/cm^2, and leaving the cell culture dishes at room temperature for 1 hour or more.
# (§2) Next, the cells on day 9 after treated by the same procedure as in Reference Example 2 were seeded on each well of various types of laminin coated culture dishes at 7.5×10^4 cells/cm^2, the medium was exchanged after 15 minutes, and cells attached to the dishes were used as HBCs and cells not attached to the dishes were used as NHBCs (see FIG. 5). With regard to cells before passage (the cell population which contained both HBCs and NHBCs: before), HBCs, and NHBCs, the expressions of integrin α6 (ITGA6) and integrin β1 (ITGB1) were confirmed. As a result, almost all cells of HBCs were confirmed to be co-positive (FIG. 7). The HBCs attached to the dishes were each further cultured for 7 days. […]
# [2] = tested on: HBCs from human ES cells (H9); test: Marker positive rates of HBCs passaged 8 times on LN111- or LN111E8-coated culture dish (flow cytometry); format: cell-based
# Procedure: By the same procedure as in Example 9, HBCs were seeded to each well of various types of laminin coated culture dishes at 7.5×10^4 cells/cm^2 by using a LN111- or LN111E8-coated culture dish, and the medium was exchanged after 15 minutes (the number of passages of 0, day 9). After that, the cells were cultured for from 6 days to 7 days with the medium being exchanged every day, and a cell suspension was prepared so that the number of cells was 7.5×10^4 cells/cm^2. Then, the cells were passaged on the LN111-coated culture dish or the LN111E8-coated culture dish. At the time when such passage operations were repeated 8 times (P8), the positive rate of AFP (%) was confirmed by flow cytometry analysis. […] In addition, also with regard to markers other than AFP (CD133, EpCAM, ALB, CK7, and CK19), their positive rates were confirmed by flow cytometry analysis at the time when the passage culture was repeated up to 8 times (P8).
# [3] = tested on: HBCs derived from ES cells (H9); test: Differentiation induction of LN111-maintained HBCs to bile duct epithelial cells (EGF, ILGF2, collagen gel); format: cell-based, human; conditions: HBC P10 maintained on LN111 vs HBC P0; 14 days differentiation
# Procedure: Specifically, in Example 6, HBCs (H9) without passage (HBC P0), HBCs passaged 10 times (HBC P10), and HBCs derived from a single cell (clone) were embedded in collagen gel by using a medium containing EGF (50 ng/ml) and ILGF2 (20 ng/ml), and were cultured for 14 days. Then, the expression of each of marker genes before and after the differentiation induction treatment to a bile duct by EGF and ILGF2 was confirmed. The expression was confirmed by a RT-PCR technique (FIG. 17). Commercially available primer sets and reagents were used for RT-PCR measurement. SOX9 and Type IV collagen are markers of bile duct epithelial cells, and ALB and αAT are markers of mature hepatocytes.
# Each of relative expression levels of marker genes of bile duct epithelial cells and mature hepatocytes was confirmed by defining the expression level in cells of […] before being subjected to the differentiation induction as 1. The expressions of markers of bile duct epithelial cells were increased by the differentiation induction treatment. In addition, the expression levels of bile duct marker genes (SOX9 and Type IV collagen) by bile duct epithelial cells which were induced to differentiate from HBC P10 were higher than those which were induced to differentiate from HBC P0 (FIG. 17).
# [4] = tested on: HBCs derived from ES cells (H9) and HBCs derived from iPS cells (Dotcom); test: Repeated passage (15 times) of HBCs on LN111-coated culture dish: cell number and AFP flow cytometry; format: cell-based, human
# Procedure: In Example 3, the proliferative capacities of HBCs derived from ES cells (H9) obtained in Reference Example 2 and HBCs derived from iPS cells (Dotcom) generated by the same procedure were confirmed. The cells derived from ES cells or those derived from iPS cells on day 9 obtained by treating the cells by the same procedure as in Reference Example 2 were seeded in each well of the LN111-coated culture dish at 7.5×10^4 cells/cm^2, and the medium was exchanged after 15 minutes (the number of times of passage was 0, on day 9). After that, the cells were cultured for from 6 days to 7 days with the medium being exchanged every day, a cell suspension was prepared so that the number of cells was 7.5×10^4 cells/cm^2, and the cells were passaged on the LN111-coated culture dish. Such passage operations were performed 15 times.
# [5] = tested on: HBCs derived from ES cells (H9); test: ALB/CK7 colony count of HBCs cultured on laminin-coated culture dishes (immunostaining); format: cell-based, human; conditions: HBCs seeded at 200 cells/cm^2 on laminin-coated dish, medium 3, 5 days after seeding
# Procedure: as §1
# In Example 2 and Comparative Example 2, HBCs derived from ES cells (H9) obtained in Reference Example 2 were seeded in each well of various types of laminin-coated culture dishes at 200 cells/cm^2 in a similar manner to Example 1 and Comparative Example 1, the HBCs were cultured by using the medium 3, and the expressions of ALB and CK7 by cultured cells were confirmed. The HBCs were fixed by using a 4% paraformaldehyde solution 5 days after seeding the HBCs, immunostaining was performed, and thereafter, the numbers of colonies which were ALB positive (+)/CK7 positive (+), ALB positive (+)/CK7 negative (−) and ALB negative (−)/CK7 […] were counted. When the cells were cultured in the LN111-coated culture dish, the highest number of the ALB positive (+)/CK7 positive (+) colonies, which were colonies of hepatoblast-like cells, was able to be confirmed.
# [6] = tested on: HBCs derived from ES cells; test: AFP expression of cells cultured on various laminin-coated culture dishes; format: cell-based, human; conditions: cells cultured on laminin-coated dish, compared with cells immediately after passage (P0) (FIG. 9)
# Procedure: as §1, §2
# [7] = tested on: HBCs derived from ES cells (H9); test: Differentiation induction of LN111-maintained HBCs to hepatocytes (HGF, OsM, DEX on Matrigel); format: cell-based, human; conditions: HBC P10 maintained on LN111 vs HBC P0; 14 days differentiation
# Procedure: In view of the foregoing, in Example 5, HBCs (H9) with the number of passages of 0 (HBC P0), HBCs (H9) with the number of passages of 10 (HBC P10), and HBCs derived from a single cell (HBC clone) were cultured in a medium containing HGF, OsM (20 ng/ml), and DEX (10^−6 M) on Matrigel for 14 days, and the expression of each of marker genes before and after the differentiation induction treatment into liver by HGF, OsM, and DEX was confirmed. Clone cells were obtained by seeding cells on a culture dish at 200 cells/cm^2. The expression of each of gene markers was confirmed by real-time RT-PCR. Commercially available primer sets and reagents were used for real-time RT-PCR measurement. […]
# Each of relative expression levels of marker genes of mature hepatocytes was confirmed by defining the expression level by human frozen hepatocytes cultured for 48 hours after being seeded on a culture dish as 1. […] It was confirmed that the differentiation rate into mature hepatocytes of hepatocytes obtained by differentiation induction on the HBCs (H9) with the number of passages of 10 (HBC P10) was higher than that of the hepatocytes obtained by differentiation induction on the HBCs (HBC P0), also from the ASGR1 positive cell rates analyzed by flow cytometry (FIG. 16A) and the amounts of ALB secretion and Urea secretion (FIGS. 16B and 16C).
Substance,proliferation rate of HBCs [1],positive rate of AFP after passage ([2]; passaged 8 times (P8) (FIG. 24)),"positive rates of markers other than AFP (CD133, EpCAM, ALB, CK7, CK19) ([2]; passaged 8 times (P8) (FIG. 25))",differentiation ability to bile duct epithelial cells [3],"AFP positive cells ([4]; HBC P1, P10, P15, flow cytometry (FIG. 11))","proliferation of cultured cells over passages ([4]; passage every 6 to 7 days, 15 passages (FIG. 10))",number of ALB+/CK7+ colonies [5],number of ALB+/CK7− colonies [5],number of ALB−/CK7+ colonies [5],expression of AFP [6],differentiation efficiency and differentiation ability to hepatocytes [7]
"LN111: human recombinant laminin 111 (α1β1γ1), used to coat cell culture dishes",highest,expressions of AFP were maintained,expressions of all markers were maintained,improved,high expression rates of AFP regardless of the number of passages,continued to proliferate even after passaged 15 times,82,2,5,expressed AFP in a similar manner to a group of cells immediately after passage (P0),improved
"LN211: human recombinant laminin 211, comparative dish coating",–,–,–,–,–,–,25,3,12,–,–
"LN411: human recombinant laminin 411, comparative dish coating",–,–,–,–,–,–,12,6,31,–,–
"LN511: human recombinant laminin 511, comparative dish coating",–,–,–,–,–,–,14,2,36,–,–
